The nature of data set [1]: Toxicity in ip dosed Swiss-Webster mouse after 24 hrs. Type of data set: organism-based. The settings on record: in vivo.
The test system of data set [2] is Mus musculus. The experiment in a line: Safety index, ratio of LD50 for toxicity in Swiss-Webster mouse to ED50 for CNS depressant activity in ip dosed Swiss-Webster by rotarod assay. Type of data set: functional.
For data set [3], the system named is Mus musculus. The data set can be described thus: CNS depressant activity in ip dosed Swiss-Webster mouse assessed as spontaneous motor activity by rotarod assay. Type of data set: functional. In general terms: Falling from the rotarod earlier than controls is read as motor impairment.
Data set [4] has as its system Mus musculus. The data set can be described thus: Anticonvulsant activity in Swiss-Webster mouse assessed as protection against pentylenetetrazole-induced seizure at 10 to 20 mg/kg, ip. Type of data set: functional, organism-based.
The subject of data set [5] is Mus musculus. The experiment in a line: Anticonvulsant activity in Swiss-Webster mouse assessed as protection against strychnine-induced seizure at 10 to 20 mg/kg, ip. The class given is functional, organism-based.
Data set [6] concerns Rattus norvegicus. The data set can be described thus: Toxicity in Wistar rat assessed as decrease in respiration at 50 to 200 mg/kg, ip. The class given is organism-based. More on the design: dose 50-200 mg/kg, route intraperitoneal; scale not given: the % may be the effect or the level left. The following applies: in vivo.
For data set [7], the system named is Rattus norvegicus. The experiment in a line: Toxicity in Wistar rat assessed as decrease in body temperature at 50 to 200 mg/kg, ip. Set-up: dose 50-200 mg/kg, route intraperitoneal. The settings on record: in vivo. The class given is organism-based.
Data set [8] relates to Rattus norvegicus. The experiment in a line: Toxicity in Wistar rat assessed as marked ptosis at 50 to 200 mg/kg, ip. The class given is organism-based. More on the design: dose 50-200 mg/kg, route intraperitoneal. The following applies: in vivo.
Data set [9] relates to Rattus norvegicus. The data set can be described thus: Toxicity in Wistar rat assessed as decrease in heart rate at 50 to 200 mg/kg, ip. The following applies: in vivo. The class given is organism-based. Set-up: dose 50-200 mg/kg, route intraperitoneal.
In data set [10] the test system is Mus musculus. The data set can be described thus: Anticonvulsant activity against maximal electroshock-induced seizure in Swiss-Webster mouse assessed as prolongation of time for onset of convulsion at 50 to 200 mg/kg, ip relative to control. The class given is functional. The following applies: dose mg/kg 50-200; route intraperitoneal.
Data set [11] deals with Mus musculus. The experiment in a line: Anticonvulsant activity against pentylenetetrazole-induced seizure in Swiss-Webster mouse assessed as prolongation of time for onset of convulsion at 50 to 200 mg/kg, ip relative to control. The class given is functional.
Data set [12] deals with Mus musculus. The data set can be described thus: Anticonvulsant activity against strychnine-induced seizure in Swiss-Webster mouse assessed as prolongation of time for onset of convulsion at 50 to 200 mg/kg, ip relative to control. Type of data set: functional. The following applies: dose mg/kg 50-200; route intraperitoneal.
In data set [13] the test system is Rattus norvegicus. The experiment in a line: Toxicity in Wistar rat assessed as decrease in respiration at 5 to 15 mg/kg, ip. The class given is organism-based. Set-up: dose 5-15 mg/kg, route intraperitoneal; scale not given: the % may be the effect or the level left. The settings on record: in vivo.
For data set [14], the system named is Rattus norvegicus. The data set can be described thus: Toxicity in Wistar rat assessed as decrease in body temperature at 5 to 15 mg/kg, ip. More on the design: dose 5-15 mg/kg, route intraperitoneal. The settings on record: in vivo. Type of data set: organism-based.
The test system of data set [15] is Rattus norvegicus. The data set can be described thus: Toxicity in Wistar rat assessed as marked ptosis at 5 to 15 mg/kg, ip. The class given is organism-based. More on the design: dose 5-15 mg/kg, route intraperitoneal. The following applies: in vivo.
Data set [16] deals with Rattus norvegicus. The experiment in a line: Toxicity in Wistar rat assessed as decrease in heart rate at 5 to 15 mg/kg, ip. Type of data set: organism-based. More on the design: dose 5-15 mg/kg, route intraperitoneal. The following applies: in vivo.
The test system of data set [17] is Mus musculus. The experiment in a line: CNS depressant activity in Swiss-Webster mouse assessed as spontaneous motor activity at 50 to 200 mg/kg, ip by rotarod assay relative to control. The class given is functional. The following applies: dose mg/kg 50-200; route intraperitoneal.
Data set [18] deals with Mus musculus. The experiment in a line: CNS depressant activity in Swiss-Webster mouse assessed as forced motor activity at 50 to 200 mg/kg, ip by rotarod assay relative to control. The class given is functional. The following applies: dose mg/kg 50-200; route intraperitoneal.

SMILES strings stand for the structures. Active and inactive are the calls of the source. The calls are words filed in the database; no cut-off is given here. A value given as a limit tells only on which side of the number the result lay.

Consider `CC(=O)N1CCN(C)C1=S`, for which the LD50 (as a rule, the dose at which mortality reaches 50%) at 24 h in data set [1] came out at 40 mg/kg. Also, the “Ratio LD50/ED50” value with Mus musculus [2] is on record as 0.5.

For `O=C1NC(=O)C(c2ccccc2)(c2ccccc2)N1` [PHENYTOIN], the ED50 (usually the midpoint of the dose-response relation) with Mus musculus [3] is 10.7 mg/kg. Moreover, the result in the data set on Mus musculus [4] and with Mus musculus [5] was inactive.

Turning to `CSC1=NCCN1C(C)=O`, the Activity was 50% with Rattus norvegicus [6]; “Toxic” with Rattus norvegicus [8]; 25 bpm with Rattus norvegicus [9]; 90% in the data set on Mus musculus [10]; 48% with Mus musculus [12]. For the same compound, in the data set with Rattus norvegicus [7], the T was 3 °C. The compound also registered an LD50 at 24 h in data set [1] of more than 1000 mg/kg. Moreover, the ED50 in the data set on Mus musculus [3] was 150 mg/kg. For the same compound, the outcome in the data set with Mus musculus [11] was Active.

`COC(=O)N1CCN(C)C1=S`: the results for the Activity in the data set on Rattus norvegicus [13], with Rattus norvegicus [15] and in the data set with Rattus norvegicus [16] were 20%, “Non-toxic” and 8 bpm, respectively. Further, the T in the data set on Rattus norvegicus [14] turned out to be 1 °C. Besides, in data set [1], the LD50 at 24 h is 25 mg/kg. In addition, the ED50 in the data set with Mus musculus [3] was determined as 18 mg/kg.

`COC(=O)N1CCN=C1SC`: the LD50 at 24 h in data set [1] is more than 1000 mg/kg. Moreover, the “Ratio LD50/ED50” value in the data set with Mus musculus [2] amounted to 16.1. Also, the Activity in the data set on Mus musculus [10] was determined as 106%. For the same compound, the result in the data set with Mus musculus [11] was Active.

The compound `COC(=O)N1CCN=C1SCC(=O)c1ccccc1` registered an LD50 at 24 h in [1] of more than 1000 mg/kg. Besides, the “inhibition (INH)” value with Mus musculus [17] came out at 85%; with Mus musculus [18] it was 40%. The Activity with Mus musculus [10] was 75%; in the data set on Mus musculus [11] (dose mg/kg 50-200, route intraperitoneal) it was 134%.

For the origin of these results see ChEMBL document CHEMBL3272311, “Syntheses and pharmacological activity of substituted imidazolidinethiones and thiomidazolines” (J Med Chem, 1977).
